Blank lines part the entries; values can stand above or below the compound they belong to.
Tests used:
[1] = test system: blowfly larvae (Lucilia cuprina); experiment: Blowfly larval bioassay; format: in vivo; conditions: for Blowfly bioassay, pupation, IC50: L. cuprina LS strain, number of pupae on Day 9 vs controls, 2 experiments; for Pupation IC50 relative to larval weight gain IC50: ratio of the two bioassay IC50 values; for Insecticidal activity in the blowfly bioassay (in words): blowfly larval bioassay
[2] = test system: HDAC activity of nuclear extracts from blowfly eggs; experiment: Fluorometric HDAC enzyme assay with nuclear extracts from blowfly eggs; format: biochemical, Lucilia cuprina; conditions: blowfly egg nuclear extract IC50 comparison
[3] = larval bioassay IC50 comparison

Structure (SMILES): CCCC(=O)OCOC(=O)C(C)(C)C [AN-9]
Blowfly bioassay, pupation, IC50 [1]: >1000 μg/assay

Structure (SMILES): CCC(=O)CCCCC[C@@H]1NC(=O)[C@H]2CCCCN2C(=O)[C@H]([C@@H](C)CC)NC(=O)[C@H](Cc2cn(OC)c3ccccc23)NC1=O [Apicidin]
Blowfly bioassay, pupation, IC50 [1]: 489 μg/assay | Pupation IC50 relative to larval weight gain IC50 [1]: 6 fold

Structure (SMILES): O=C(/C=C/c1cccc(S(=O)(=O)Nc2ccccc2)c1)NO [Belinostat]
Blowfly bioassay, pupation, IC50 [1]: >1000 μg/assay

Structure (SMILES): C#Cc1cccc(Nc2ncnc3cc(OC)c(OCCCCCCC(=O)NO)cc23)c1 [CUDC-101]
Blowfly bioassay, pupation, IC50 [1]: >1000 μg/assay

Structure (SMILES): COc1ccc(-c2nc(N3CCOCC3)c3sc(CN(C)c4ncc(C(=O)NO)cn4)cc3n2)cn1 [CUDC-907]
Blowfly bioassay, pupation, IC50 [1]: 13.8 μg/assay | Potency against blowfly larval growth relative to cyromazine (fold less potent) [1, 3]: approximately 10 fold | Pupation IC50 relative to larval weight gain IC50 [1]: approximately equal

Structure (SMILES): Nc1nc(N)nc(NC2CC2)n1 [Cyromazine]
Blowfly bioassay, pupation, IC50 [1]: 1.54 μg/assay

Structure (SMILES): N#Cc1c(N)nc(NC2CC2)nc1N [Dicyclanil]
Blowfly bioassay, pupation, IC50 [1]: 0.0634 μg/assay

Structure (SMILES): O=C(NC(=O)c1c(F)cccc1F)Nc1ccc(Cl)cc1 [Diflubenzuron]
Blowfly bioassay, pupation, IC50 [1]: 0.119 μg/assay

Structure (SMILES): Nc1ccccc1NC(=O)c1ccc(CNC(=O)OCc2cccnc2)cc1 [Entinostat]
Blowfly bioassay, pupation, IC50 [1]: 640 μg/assay

Structure (SMILES): CCN(CC)Cc1ccc2cc(COC(=O)Nc3ccc(C(=O)NO)cc3)ccc2c1 [Givinostat]
Blowfly bioassay, pupation, IC50 [1]: >1000 μg/assay

Structure (SMILES): Nc1ccccc1NC(=O)c1ccc(CNc2nccc(-c3cccnc3)n2)cc1 [Mocetinostat]
Blowfly bioassay, pupation, IC50 [1]: >1000 μg/assay

Structure (SMILES): CCCCN(Cc1ccc(C(=O)NO)cc1)C(=O)Nc1ccccc1 [Nexturostat, Nexturastat A]
Blowfly bioassay, pupation, IC50 [1]: >1000 μg/assay

Structure (SMILES): Cc1[nH]c2ccccc2c1CCNCc1ccc(/C=C/C(=O)NO)cc1 [Panobinostat]
Blowfly bioassay, pupation, IC50 [1]: 393 μg/assay

Structure (SMILES): C=C1C(=O)O[C@H]2[C@H]1CC/C(C)=C/CC[C@@]1(C)O[C@@H]21 [Parthenolide, parthenolide]
Blowfly bioassay, pupation, IC50 [1]: >1000 μg/assay | Insecticidal activity in the blowfly bioassay (in words) [1]: no insecticidal activity

Structure (SMILES): CCCCc1nc2cc(/C=C/C(=O)NO)ccc2n1CCN(CC)CC [Pracinostat]
Blowfly bioassay, pupation, IC50 [1]: >1000 μg/assay

Structure (SMILES): O=C(NCCSSCCNC(=O)/C(Cc1ccc(O)c(Br)c1)=N/O)/C(Cc1ccc(O)c(Br)c1)=N/O [Psammaplin A]
Blowfly bioassay, pupation, IC50 [1]: 93.4 μg/assay

Structure (SMILES): Cn1cc(CNCC2CCN(c3ncc(C(=O)NO)cn3)CC2)c2ccccc21 [Quisinostat]
Blowfly bioassay, pupation, IC50 [1]: 274 μg/assay

Structure (SMILES): CN(C)Cc1ccc(S(=O)(=O)n2ccc(/C=C/C(=O)NO)c2)cc1 [Resminostat]
Blowfly bioassay, pupation, IC50 [1]: >1000 μg/assay

Potency in nuclear extract HDAC assay relative to quisinostat (fold more potent) [2]: approximately 600 fold
Structure (SMILES): C/C=C1\NC(=O)[C@H]2CSSCC/C=C/[C@H](CC(=O)N[C@H](C(C)C)C(=O)N2)OC(=O)[C@H](C(C)C)NC1=O [Romidepsin]
Blowfly bioassay, pupation, IC50 [1]: 0.196 μg/assay | Potency against blowfly larval growth relative to cyromazine (fold more potent) [1, 3]: 10 fold | Potency against blowfly larval growth relative to dicyclanil ([1]; larval bioassay IC50 comparison, in words): equipotent | Pupation IC50 relative to larval weight gain IC50 [1]: ≤ 2 fold

Structure (SMILES): CC(/C=C/C(=O)NO)=C\[C@@H](C)C(=O)c1ccc(N(C)C)cc1 [Trichostatin]
Blowfly bioassay, pupation, IC50 [1]: 20.6 μg/assay | Potency against blowfly larval growth relative to cyromazine (fold less potent) [1, 3]: approximately 10 fold | Pupation IC50 relative to larval weight gain IC50 [1]: ≤ 2 fold

Structure (SMILES): O=C(CCCCCCC(=O)Nc1ccc([C@H]2O[C@@H](CSc3nc(-c4ccccc4)c(-c4ccccc4)o3)C[C@@H](c3ccc(CO)cc3)O2)cc1)NO [Tubacin]
Blowfly bioassay, pupation, IC50 [1]: >1000 μg/assay | Insecticidal activity in the blowfly bioassay (in words) [1]: inactive

Structure (SMILES): CN1CCc2c(c3ccccc3n2Cc2ccc(C(=O)NO)cc2)C1 [Tubastatin A]
Blowfly bioassay, pupation, IC50 [1]: >1000 μg/assay | Insecticidal activity in the blowfly bioassay (in words) [1]: inactive

Structure (SMILES): CCCC(CCC)C(=O)O [Valproic acid]
Blowfly bioassay, pupation, IC50 [1]: >1000 μg/assay
